# Assay results as given in paper PMC9128629, “Identification and Characterization of Bifunctional Drimenol Synthases of Marine Bacterial Origin” (ACS Chemical Biology, 2022).
# How the values were obtained:
# Assay type in all cases: biochemical
# [1] = target: T1, AsDMS (Aquimarina spongiae drimenol synthase) (Aquimarina spongiae, UniProt A0A1M6CXF0); experiment: GC-MS quantification of drimenol, Michaelis-Menten fit; details: 50 mM Tris-HCl pH 8.0, 2 mM MgCl2, 1 mM DTT, 0-120 μM FPP, 200 nM enzyme, 30 °C
# T1 construct: gene SAMN04488508_102320
# T1 sequence (A0A1M6CXF0 entry or part of it): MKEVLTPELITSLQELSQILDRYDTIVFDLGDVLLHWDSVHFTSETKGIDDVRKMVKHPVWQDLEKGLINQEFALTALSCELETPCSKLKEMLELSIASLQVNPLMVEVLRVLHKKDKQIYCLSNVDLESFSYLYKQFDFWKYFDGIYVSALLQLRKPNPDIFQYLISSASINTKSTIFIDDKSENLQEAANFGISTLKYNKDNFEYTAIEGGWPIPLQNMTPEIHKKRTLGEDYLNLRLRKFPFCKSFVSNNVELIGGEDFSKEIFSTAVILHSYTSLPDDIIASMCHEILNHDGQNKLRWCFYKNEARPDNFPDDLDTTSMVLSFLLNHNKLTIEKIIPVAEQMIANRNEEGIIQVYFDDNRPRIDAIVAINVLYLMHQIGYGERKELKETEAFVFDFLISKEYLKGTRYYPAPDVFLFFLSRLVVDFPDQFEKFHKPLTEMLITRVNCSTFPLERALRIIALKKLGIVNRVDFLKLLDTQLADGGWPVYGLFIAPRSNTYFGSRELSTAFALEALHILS
# [2] = target: T1, AsDMS (Aquimarina spongiae drimenol synthase); experiment: GC-MS detection of drimenol; details: 50 mM Tris-HCl pH 8.0, 2 mM MgCl2, 1 mM DTT, 100 μM FPP, 200 nM enzyme, 30 °C, 1 h, with or without alkaline phosphatase
# [3] = target: T2, AsDMS (Aquimarina spongiae drimenol synthase) (Aquimarina spongiae, UniProt A0A1M6CXF0, D182N/K183D, form not given); experiment: GC-MS detection of drimenol; details: 50 mM Tris-HCl pH 8.0, 2 mM MgCl2, 1 mM DTT, 100 μM FPP, 200 nM enzyme, 30 °C, 1 h, with or without alkaline phosphatase
# T2 construct: gene SAMN04488508_102320
# T2 sequence (A0A1M6CXF0 entry or part of it D182N/K183D, form open): as the sequence (A0A1M6CXF0 entry or part of it) above, with D182N, K183D counted along it
# [4] = target: T1, AsDMS (Aquimarina spongiae drimenol synthase); experiment: GC-MS detection of drimenol; details: 50 mM Tris-HCl pH 8.0, 2 mM MgCl2, 1 mM DTT, 100 μM FPP, 200 nM enzyme, 30 °C, 1 h, with or without alkaline phosphatase; remark: listed apart in the source
# FeDMS = target: T3, FeDMS (Flavivirga eckloniae, UniProt A0A2K9PVZ9); experiment: GC-MS detection of drimenol; details: 50 mM Tris-HCl pH 8.0, 2 mM MgCl2, 1 mM DTT, 100 μM FPP, 500 nM enzyme, 30 °C, 1 h, with or without alkaline phosphatase
# T3 construct: gene C1H87_21965
# T3 sequence (A0A2K9PVZ9 entry or part of it): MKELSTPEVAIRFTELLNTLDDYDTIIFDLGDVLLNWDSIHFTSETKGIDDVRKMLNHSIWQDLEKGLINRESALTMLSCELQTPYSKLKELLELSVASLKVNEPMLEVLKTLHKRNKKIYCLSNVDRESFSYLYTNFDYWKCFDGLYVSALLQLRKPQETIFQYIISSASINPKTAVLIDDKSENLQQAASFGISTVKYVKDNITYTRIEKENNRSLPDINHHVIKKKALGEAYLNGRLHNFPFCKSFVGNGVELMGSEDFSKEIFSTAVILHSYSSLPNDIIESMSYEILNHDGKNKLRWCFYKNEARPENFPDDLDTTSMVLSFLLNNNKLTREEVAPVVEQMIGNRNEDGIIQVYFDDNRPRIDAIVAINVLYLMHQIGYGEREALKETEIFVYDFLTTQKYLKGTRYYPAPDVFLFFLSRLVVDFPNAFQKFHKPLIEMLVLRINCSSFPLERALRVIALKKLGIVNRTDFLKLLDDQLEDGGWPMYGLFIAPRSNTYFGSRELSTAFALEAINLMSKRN
compound,measurement,setting,value
CC(C)=CCC/C(C)=C/CC/C(C)=C/CO[P@@](=O)(O)OP(=O)(O)O [FPP],Km,[1],9.59 ± 2.15 µM
same,GC-MS detection of drimenol,[2],The D196N mutant displayed a significant decrease in activity
same,GC-MS detection of drimenol,[3],a double mutant D196N/K197D
same,GC-MS detection of drimenol,[4],exhibited almost equipotent activity to that of the WT
same,GC-MS detection of drimenol,FeDMS,"five proteins (AsDMS, A474DMS, A119DMS, FeDMS, and RbDMS) with FPP yielded a single compound"
